Laboratory results: PMC6717892 (The EMBO Journal, 2019)

Target: T1, Bd1971 (Bdellovibrio bacteriovorus, UniProt Q6MLN6)
T1 construct: ITC: Bd1971ΔEAL (residues 1–150); crystal: full-length
Test: ITC (two-site model) and co-crystal structure; also activates phosphodiesterase activity (K half […])
Type: binding

T1 sequence (Q6MLN6 entry or part of it): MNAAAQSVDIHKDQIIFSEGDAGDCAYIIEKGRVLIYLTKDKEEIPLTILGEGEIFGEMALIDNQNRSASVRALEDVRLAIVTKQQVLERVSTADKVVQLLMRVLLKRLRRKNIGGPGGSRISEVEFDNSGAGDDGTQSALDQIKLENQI

`Nc1nc2c(ncn2[C@@H]2O[C@@H]3COP(=O)(O)O[C@H]3[C@H]2O)c(=O)[nH]1` [cGMP] showed a Kd of 769 nM.
